Results reported in ChEMBL document CHEMBL5390258, “Recent Progress and Prospects of Small Molecules for NLRP3 Inflammasome Inhibition” (J Med Chem, 2023).

Experiments:
[1] = target: NACHT, LRR and PYD domains-containing protein 3 (Homo sapiens, UniProt Q96P20); test: Inhibition of NLRP3 in human PBMC cells assessed as reduction in IL-1beta production; assay type: cell-based
[2] = Cytotoxicity against human THP-1 cells assessed as reduction in cell viability measured after 72 hrs by MTT assay; assay type: toxicity, cell-based; details: read-out: TC50
[3] = test system: THP-1; test: Induction of pyroptosis in PMA-differentiated human THP-1 cells at 10 uM in presence of ATP by CytoTox 96 nonradioactive assay relative to control; assay type: functional

NACHT, LRR and PYD domains-containing protein 3, sequence (Q96P20 whole entry, the tested form may be a part): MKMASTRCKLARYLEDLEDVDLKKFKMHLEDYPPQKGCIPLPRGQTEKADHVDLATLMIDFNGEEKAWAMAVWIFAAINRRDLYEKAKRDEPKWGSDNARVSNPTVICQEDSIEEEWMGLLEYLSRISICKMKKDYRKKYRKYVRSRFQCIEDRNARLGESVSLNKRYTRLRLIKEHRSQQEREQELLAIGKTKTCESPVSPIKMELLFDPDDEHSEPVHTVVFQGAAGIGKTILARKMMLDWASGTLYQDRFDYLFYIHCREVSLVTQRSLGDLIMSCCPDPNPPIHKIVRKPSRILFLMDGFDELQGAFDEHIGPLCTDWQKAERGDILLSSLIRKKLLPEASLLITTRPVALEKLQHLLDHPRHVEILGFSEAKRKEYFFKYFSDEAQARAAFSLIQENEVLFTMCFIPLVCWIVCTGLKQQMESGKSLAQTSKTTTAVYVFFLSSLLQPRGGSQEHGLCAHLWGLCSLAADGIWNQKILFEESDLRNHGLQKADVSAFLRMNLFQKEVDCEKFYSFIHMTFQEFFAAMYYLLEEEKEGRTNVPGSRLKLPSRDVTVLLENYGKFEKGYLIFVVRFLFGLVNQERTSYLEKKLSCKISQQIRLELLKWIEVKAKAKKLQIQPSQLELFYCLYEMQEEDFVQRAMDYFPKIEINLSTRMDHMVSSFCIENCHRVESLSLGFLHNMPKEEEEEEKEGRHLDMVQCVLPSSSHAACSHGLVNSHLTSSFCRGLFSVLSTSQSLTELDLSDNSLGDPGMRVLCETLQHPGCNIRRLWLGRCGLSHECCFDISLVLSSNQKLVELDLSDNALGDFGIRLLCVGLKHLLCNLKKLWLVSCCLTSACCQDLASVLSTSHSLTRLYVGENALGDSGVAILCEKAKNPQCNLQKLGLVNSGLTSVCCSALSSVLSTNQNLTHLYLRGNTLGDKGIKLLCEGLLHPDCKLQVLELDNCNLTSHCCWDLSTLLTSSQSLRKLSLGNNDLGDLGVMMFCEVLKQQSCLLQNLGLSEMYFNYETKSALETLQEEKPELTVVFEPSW

IC50 [1] [µM] | SMILES | CC50 at 72 h [2] [µM] | Activity [3] [%]
5.18 | C=C1C(=O)[C@]23[C@H](O)[C@@H]1CC[C@H]2[C@@]12CO[C@@]3(O)[C@@H](O)[C@@H]1C(C)(C)CC[C@@H]2O |  | 
 | C=C(Cc1ccccc1Cl)C(=O)NCCc1ccc(S(N)(=O)=O)cc1 | > 100 | 80.9
